From patent US20240058450A1, “BCL-XL Inhibitory Compounds Having Low Cell Permeability and Antibody Drug Conjugates Including the Same” (AbbVie Inc., priority 2014, published 2024)
Like-named read-outs stand apart in the source and are kept apart here.

Tests used:
[1] = biological target: Bcl-xL (Homo sapiens, UniProt Q07817); experiment: Time Resolved-Fluorescence Resonance Energy Transfer (TR-FRET) binding assay, competition with probe F-Bak
Experimental: Tb-anti-GST antibody was purchased from Invitrogen (Catalog No. PV4216).
For the assay, test compounds were serially diluted in DMSO starting at 50 μM (2× starting concentration; 10% DMSO) and 10 μL transferred into a 384-well plate. 10 μL of a protein/probe/antibody mix was then added to each well at final concentrations listed below:
The samples were then mixed on a shaker for 1 minute and incubated for an additional 2 hours at room temperature. For each assay plate, a probe/antibody and protein/antibody/probe mixture were included as a negative and a positive control, respectively. Fluorescence was measured on the Envision (Perkin Elmer) using a 340/35 nm excitation filter and 520/525 (F-Bak) and 495/510 nm (Tb-labeled anti-his antibody) emission filters. Dissociation constants (Ki) were determined using Wang's equation (Wang, 1995, FEBS Lett. 360:111-114). The TR-FRET assay can be performed in the presence of varying concentrations of human serum (HS) or fetal bovine serum (FBS). Compounds were tested both without HS and in the presence of 1% HS.

[2] = tested on: Molt-4 human acute lymphoblastic leukemia cells; experiment: Molt-4 cell viability assay (CellTiter-Glo, 48 hours, 10% HS); assay type: cell-based; settings: non-permeabilized cells
Experimental: The ability of Bcl-xL inhibitors that are able to traverse cell membranes to inhibit Bcl-xL can be determined in cell-based killing assays using a variety of cell lines and mouse tumor models. For example, their activity on cell viability can be assessed on a panel of cultured tumorigenic and non-tumorigenic cell lines, as well as primary mouse or human cell populations.
In one exemplary set of conditions, Molt-4 (ATCC, Manassas, VA) human acute lymphoblastic leukemia cells were plated 12,500 cells per well in 384-well tissue culture plates (Corning, Corning, NY) in a total volume of 25 μL tissue culture medium supplemented with 10% human serum (Sigma-Aldrich, St. Louis, MO) and treated with a 3-fold serial dilution of the compounds of interest from 10 μM to 0.0005 μM. Each concentration was tested in duplicate at least 3 separate times. The number of viable cells following 48 hours of compound treatment was determined using the CellTiter-Glo®, Luminescent Cell Viability Assay according to the manufacturer's recommendations (Promega Corp., Madison, WI). Compounds were tested in the presence of 10% HS.

[3] = in the presence of 1% HS, read-out: Bcl-xL Binding Ki (nM, 1% HS)
[4] = without HS, read-out: Bcl-xL Binding Ki

Sequence of Bcl-xL (Q07817 whole entry): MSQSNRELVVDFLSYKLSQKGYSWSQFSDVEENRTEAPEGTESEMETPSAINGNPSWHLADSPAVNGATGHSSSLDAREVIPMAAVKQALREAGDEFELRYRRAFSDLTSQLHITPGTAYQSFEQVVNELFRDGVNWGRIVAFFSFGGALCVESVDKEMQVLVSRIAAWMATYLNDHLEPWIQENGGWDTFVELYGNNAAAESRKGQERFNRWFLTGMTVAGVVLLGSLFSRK

Compound	Ki [1, 3] [nM]	Ki [1, 4] [nM]	EC50 ([2]; Homo sapiens, MOLT-4, 48 h) [nM]	EC50 [2] [nM]
Cc1c(-c2ccc(N3CCc4cccc(C(=O)Nc5nc6ccccc6s5)c4C3)nc2C(=O)O)cnn1CC12CC3(C)CC(C)(C1)CC(OCCNCCOCCOCC(=O)O)(C3)C2 [Example 1.1, 6-[8-(1,3-benzothiazol-2-ylcarbamoyl)-3,4-dihydroisoquinolin-2 (1H)-yl]-3-[1-({3-[2-({2-[2-(carboxymethoxy)ethoxy]ethyl}amino)ethoxy]-5,7-dimethyltricyclo[3.3.1.1^3,7]dec-1-yl]methyl)-5-methyl-1H-pyrazol-4-yl]pyridine-2-carboxylic acid]	0.09	< 0.001	26	–
Cc1c(-c2ccc(N3CCc4cccc(C(=O)Nc5nc6ccccc6s5)c4C3)nc2C(=O)O)cnn1CC12CC3(C)CC(C)(C1)CC(OCCNCCS(=O)(=O)N[C@H]1C(O)O[C@H](CO)[C@@H](O)[C@@H]1O)(C3)C2 (stereo partly drawn) [Example 1.3, 2-{[(2-{[2-({3-[(4-{6-[8-(1,3-benzothiazol-2-ylcarbamoyl)-3,4-dihydroisoquinolin-2 (1H)-yl]-2-carboxypyridin-3-yl}-5-methyl-1H-pyrazol-1-yl)methyl]-5,7-dimethyltricyclo[3.3.1.1^3,7]dec-1-yl)oxy)ethyl]amino)ethyl)sulfonyl]amino}-2-deoxy-D-glucopyranose]	0.18	0.0011	23	–
Cc1c(-c2ccc(N3CCc4cccc(C(=O)Nc5nc6ccccc6s5)c4C3)nc2C(=O)O)cnn1CC12CC3(C)CC(C)(C1)CC(OCCNCC(O)CO)(C3)C2 (centres unmarked) [Example 1.7, 6-[8-(1,3-benzothiazol-2-ylcarbamoyl)-3,4-dihydroisoquinolin-2 (1H)-yl]-3-{1-[(3-{2-[(2,3-dihydroxypropyl)amino]ethoxy}-5,7-dimethyltricyclo[3.3.1.1^3,7]dec-1-yl)methyl]-5-methyl-1H-pyrazol-4-yl}pyridine-2-carboxylic acid]	0.24	–	12	–
Cc1c(-c2ccc(N3CCc4cccc(C(=O)Nc5nc6ccccc6s5)c4C3)nc2C(=O)O)cnn1CC12CC3(C)CC(C)(C1)CC(OCCNCc1ccc(S(=O)(=O)N[C@@H]4[C@@H](O)[C@H](O)[C@@H](CO)O[C@H]4O)cc1)(C3)C2 [Example 1.8, 2-({[4-({[2-({3-[(4-{6-[8-(1,3-benzothiazol-2-ylcarbamoyl)-3,4-dihydroisoquinolin-2 (1H)-yl]-2-carboxypyridin-3-yl}-5-methyl-1H-pyrazol-1-yl)methyl]-5,7-dimethyltricyclo[3.3.1.1^3,7]dec-1-yl}oxy)ethyl]amino}methyl)phenyl]sulfonyl}amino)-2-deoxy-beta-D-glucopyranose]	0.19	0.0019	108	–
Cc1c(-c2ccc(N3CCc4cccc(C(=O)Nc5nc6ccccc6s5)c4C3)nc2C(=O)O)cnn1CC12CC3(C)CC(C)(C1)CC(OCCNCCc1cn([C@@H]4O[C@H](C(=O)O)[C@@H](O)[C@H](O)[C@H]4O)nn1)(C3)C2 [Example 1.9, 8-(1,3-benzothiazol-2-ylcarbamoyl)-2-{6-carboxy-5-[1-({3-[2-({2-[1-(beta-D-glucopyranuronosyl)-1H-1,2,3-triazol-4-yl]ethyl}amino)ethoxy]-5,7-dimethyltricyclo[3.3.1.1^3,7]dec-1-yl}methyl)-5-methyl-1H-pyrazol-4-yl]pyridin-2-yl}-1,2,3,4-tetrahydroisoquinoline]	0.047	< 0.001	–	–
Cc1c(-c2ccc(N3CCc4cccc(C(=O)Nc5nc6ccccc6s5)c4C3)nc2C(=O)O)cnn1CC12CC3(C)CC(C)(C1)CC(OCCOCCNCCCP(=O)(O)O)(C3)C2 [Example 1.16, 6-[8-(1,3-benzothiazol-2-ylcarbamoyl)-3,4-dihydroisoquinolin-2 (1H)-yl]-3-(1-{[3,5-dimethyl-7-(2-{2-[(3-phosphonopropyl)amino]ethoxy}ethoxy)tricyclo[3.3.1.1^3,7]dec-1-yl]methyl}-5-methyl-1H-pyrazol-4-yl}pyridine-2-carboxylic acid]	0.17	< 0.001	218	–
Cc1c(-c2ccc(N3CCc4cccc(C(=O)Nc5nc6ccccc6s5)c4C3)nc2C(=O)O)cnn1CC12CC3(C)CC(C)(C1)CC(OCCN(C)C(=O)[C@@H](N)CC(=O)O)(C3)C2 [Example 1.17, 3-{1-[(3-{2-[L-alpha-aspartyl(methyl)amino]ethoxy}-5,7-dimethyltricyclo[3.3.1.1^3,7]dec-1-yl)methyl]-5-methyl-1H-pyrazol-4-yl}-6-[8-(1,3-benzothiazol-2-ylcarbamoyl)-3,4-dihydroisoquinolin-2 (1H)-yl]pyridine-2-carboxylic acid]	0.3	0.022	576	–
Cc1c(-c2ccc(-c3ccc4c(c3)N(C(=O)Nc3nc5ccccc5s3)CCC4)nc2C(=O)O)cnn1CC12CC3(C)CC(C)(C1)CC(OCCN(C)C(=O)[C@@H](N)CS(=O)(=O)O)(C3)C2 [Example 1.21, 6-[1-(1,3-benzothiazol-2-ylcarbamoyl)-1,2,3,4-tetrahydroquinolin-7-yl]-3-(1-[(3,5-dimethyl-7-(2-[methyl(3-sulfo-L-alanyl)amino]ethoxy}tricyclo[3.3.1.1^3,7]dec-1-yl)methyl]-5-methyl-1H-pyrazol-4-yl)pyridine-2-carboxylic acid]	0.22	0.004	420	–
Cc1c(-c2ccc(N3CCc4cccc(C(=O)Nc5nc6ccccc6s5)c4C3)nc2C(=O)O)cnn1CC12CC3(C)CC(C)(C1)CC(OCCN(C)C(=O)[C@H](N)CC(=O)O)(C3)C2 [Example 1.27]	0.18	< 0.001	–	935
Cc1c(-c2ccc(-c3ccc4c(c3)N(C(=O)Nc3nc5ccccc5s3)CCC4)nc2C(=O)O)cnn1CC12CC3(C)CC(C)(C1)CC(OCCN(C)C1CNC1)(C3)C2 [Example 1.65, 3-{1-[(3-{2-[azetidin-3-yl(methyl)amino]ethoxy}-5,7-dimethyltricyclo[3.3.1.1^3,7]dec-1-yl)methyl]-5-methyl-1H-pyrazol-4-yl}-6-[1-(1,3-benzothiazol-2-ylcarbamoyl)-1,2,3,4-tetrahydroquinolin-7-yl]pyridine-2-carboxylic acid]	0.099	< 0.01	–	–
CO[C@H]1O[C@@H](Cn2cc(CCCNCCOC34CC5(C)CC(C)(CC(Cn6ncc(-c7ccc(N8CCc9cccc(C(=O)Nc%10nc%11ccccc%11s%10)c9C8)nc7C(=O)O)c6C)(C5)C3)C4)nn2)[C@H](O)[C@@H](O)[C@@H]1O [Example 1.67, methyl 6-[4-(3-{[2-({3-[(4-{6-[8-(1,3-benzothiazol-2-ylcarbamoyl)-3,4-dihydroisoquinolin-2 (1H)-yl]-2-carboxypyridin-3-yl}-5-methyl-1H-pyrazol-1-yl)methyl]-5,7-dimethyltricyclo[3.3.1.1^3,7]dec-1-yl}oxy)ethyl]amino}propyl)-1H-1,2,3-triazol-1-yl]-6-deoxy-beta-L-glucopyranoside]	0.51	< 0.01	–	–
Cc1c(-c2ccc(N3CCc4cccc(C(=O)Nc5nc6ccccc6s5)c4C3)nc2C(=O)O)cnn1CC12CC3(C)CC(C)(C1)CC(NC(=O)CNCCS(=O)(=O)O)(C3)C2 [Example 1.89, 6-{8-[(1,3-benzothiazol-2-yl)carbamoyl]-3,4-dihydroisoquinolin-2 (1H)-yl)-3-{1-[(3,5-dimethyl-7-{2-[(2-sulfoethyl)amino]acetamido}tricyclo[3.3.1.1^3,7]decan-1-yl)methyl]-5-methyl-1H-pyrazol-4-yl}pyridine-2-carboxylic acid]	0.97	< 0.01	–	–
Cc1c(-c2ccc(N3CCc4cccc(C(=O)Nc5nc6ccccc6s5)c4C3)nc2C(=O)O)cnn1CC12CC3(C)CC(C)(C1)CC(SCCNCCS(=O)(=O)O)(C3)C2 [Example 1.90, 6-[8-(1,3-benzothiazol-2-ylcarbamoyl)-3,4-dihydroisoquinolin-2 (1H)-yl]-3-(1-{[3,5-dimethyl-7-((2-[(2-sulfoethyl)amino]ethyl)sulfanyl)tricyclo[3.3.1.1^3,7]dec-1-yl]methyl)-5-methyl-1H-pyrazol-4-yl)pyridine-2-carboxylic acid]	4.2	0.13	–	–
Cc1c(-c2ccc(N3CCc4cccc(C(=O)Nc5nc6ccccc6s5)c4C3)nc2C(=O)O)cnn1CC12CC3(C)CC(C)(CC(CCCNCCS(=O)(=O)O)(C3)C1)C2 [Example 1.91, 6-{8-[(1,3-benzothiazol-2-yl)carbamoyl]-3,4-dihydroisoquinolin-2 (1H)-yl}-3-{1-[(3,5-dimethyl-7-{3-[(2-sulfoethyl)amino]propyl}tricyclo[3.3.1.1^3,7]decan-1-yl)methyl]-5-methyl-1H-pyrazol-4-yl}pyridine-2-carboxylic acid]	2.8	0.064	–	–
